Results reported in article PMC8588536, “Iridal-Type Triterpenoids Displaying Human Neutrophil Elastase Inhibition and Anti-Inflammatory Effects from Belamcanda chinensis” (Molecules, 2021).

Experiments:
[1] = target: T1, Human neutrophil elastase (HNE, EC 3.4.21.37) (Homo sapiens, UniProt P08246); test: Human neutrophil elastase inhibition, spectrophotometric, MeOSuc-AAPV-pNA substrate; format: biochemical; conditions: for Ki: Dixon plots, read-out: Ki (inhibition constant); for Type of Inhibition: Lineweaver-Burk and Dixon plots, reversibility from activity vs enzyme concentration plots; for IC50: concentration that caused 50% enzyme activity loss, three sets of experiments
T1 construct: purchased Sigma-Aldrich
T1 sequence (P08246 30-267): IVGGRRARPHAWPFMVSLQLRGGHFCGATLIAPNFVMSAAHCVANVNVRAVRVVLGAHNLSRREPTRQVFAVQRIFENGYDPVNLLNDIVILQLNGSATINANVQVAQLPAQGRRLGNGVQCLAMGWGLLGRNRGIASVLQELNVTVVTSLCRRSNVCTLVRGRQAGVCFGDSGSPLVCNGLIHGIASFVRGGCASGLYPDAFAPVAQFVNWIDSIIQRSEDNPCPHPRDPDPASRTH
Method: Human neutrophil elastase (EC 3. 4. 21. 37) (Sigma-Aldrich, St. Louis, MO, USA) activity was measured in accordance with the previous description with subtle modification, by observing the formation of p-nitroaniline after the hydrolysis of N-methoxysuccinyl-Ala-Ala-Pro-Val-p-nitro anilide at 405 nm. The inhibitors were dissolved in dimethyl sulfoxide (DMSO) and diluted to a few concentrations. In brief, in a 96-well plate, 10 µL of inhibitor solution and 40 µL of 1.5 mM of MeOSuc-AAPV-pNA were added as a substrate in the 0.02 mM Tris-HCl buffer solutions (pH 8.0). Then, 20 µL of human neutrophil elastase (0.2 unit/mL) was added to the mixture. The test mixtures were incubated and mixed for 15 min at room temperature and then screened at 405 nm for 30 min every 30 s.
Activity (%) = 100 [1/(1 + ([I]/IC50))].(1)
The modalities of HNE inhibition were estimated in experiments using particular concentrations of the substrates and inhibitors, respectively. The Michaelis–Menten constant (Km) and maximal velocity (Vmax) were investigated by a Lineweaver–Burk plot. The KI, dissociation constants for inhibitor binding to the free enzyme were calculated using a Dixon plot. Equations (2)–(4) are representatives for deriving the aforementioned parameters. (2) 1/V=Km/Vmax(1+[I]/Ki)×1/S+1/Vmax (3) Slop=Km/KiVmax[I]+Km/Vmax (4) Intercept=1/KiVmax[I]+1/Vmax.

[2] = system: iNOS mRNA in LPS-stimulated RAW264.7 cells; test: iNOS mRNA expression by RT-PCR; format: cell-based, mouse; conditions: 1 or 3 µg/mL, LPS 1 µg/mL; n = 5, p < 0.05
Method: Total RNA was isolated from cultured RAW264.7 cells using TRIzol reagent (Ambion®, Carlsbad, CA, USA) according to the manufacturer’s instructions. First strand cDNA was synthesized from the total RNA (3 μg) using oligo dT (DiaStar RT Kit, SolGent, Daejeon, Korea) and was used as a template for PCR amplification with G-Taq polymerase (Cosmogenetech, Seoul, Korea). The first-strand cDNA was quantified using a spectrophotometer (NanoDrop® ND-1000, NanoDrop Technologies, Wilmington, […], USA). The quantified cDNA was used as a template. PCR assay was performed with specific primers for inducible nitric oxide (iNOS), IL-1β, and TNF-α. The PCR steps included initial denaturation at 94 °C for 5 min, then 28 cycles at 94 °C for 30 s, 57 °C for 30 s, and 72 °C for 30 s, and a final extension step at 72 °C for 10 min. The amplified PCR products were separated in 1.5% agarose gel, and the gel was stained with ethidium bromide. The bands were visualized using the iBright^TM CL1500 imaging system (Thermo Scientific Fisher/Life Technologies Holdings Pte Ltd., Singapore). The DNA fragments were directly sequenced with the ABI PRISM® 3100-Avant Genetic Analyzer (Applied Biosystems, Carlsbad, CA, USA).

RAW264.7 cells = test: MTT cell viability assay; format: cell-based, mouse; conditions: 10 µg/mL, 24 h
Method: The mouse macrophage cell line RAW264.7 was obtained from the American Type Culture Collection (ATCC, Manassas, VA, USA). The cells were cultured in DMEM supplemented with 10% fetal bovine serum (FBS), penicillin (100 U/mL), and streptomycin (100 μg/mL) at 37 °C with 5% CO2. The medium was replaced every 2 days. After treatment with chemicals, the cell morphological changes were observed under a microscope and images are captured before cell viability assay.
Cell viability was determined calorimetrically using a 3-(4,5-dimethylthiazole-2-yl)-2,5-diphenyl tetrazolium bromide (MTT) reagent (5 mg/mL in phosphate buffered saline (PBS), Duchefa Biochemie, Haarlem, The Netherlands). The MTT assay procedures were performed as described previously. Briefly, a 24-well plate (5 × 10^4 cells/well) was seeded with RAW264.7, a mouse macrophage cell line. After 24 h of chemical treatment, each well was filled with 20 µL of 5 mg/mL MTT solution (0.1 mg/mL) and incubated for 4 h. After aspirating the supernatants, the formazan crystals in each well were dissolved in 200 µL of dimethyl sulfoxide (DMSO) for 30 min at 37 °C, and the 24-well plates were read at 570 nm with a microplate reader (Bio-Rad, Hercules, CA, USA). Data are expressed as a percentage of viable cells compared with the control.

[3] = system: NF-κB p65 in LPS-stimulated RAW264.7 cells; test: NF-κB nuclear translocation, immunocytochemistry; format: cell-based, mouse; conditions: pre-treatment 2 h prior to LPS 1 µg/mL for 16 h
Method: RAW264.7 cells cultured on round cover slips coated with poly-L-lysine were treated with triterpenoids (1 or 3 µg/mL) 2 h prior to LPS treatment, followed by LPS (1 µg/mL) for 16 h. The cells were washed with 1 x phosphate buffered saline (PBS) and fixed with 4% paraformaldehyde for 30 min. After washing the fixed cells with PBS, the cells were permeabilized with a blocking buffer (1% normal goat serum and 0.2% Triton X-100 in PBS) for 30 min at room temperature, and were incubated with an anti-NF-κB p65 antibody (1:200 dilution, Cell Signaling Technology, Danvers, MA, USA) at 4 °C overnight. After three washes in PBS, the cells were incubated in the dark for 1 h with the mixture of FITC-conjugated anti-rabbit IgG fluorescent secondary antibody diluted at 1:500 in PBS. Finally, the cells were stained with 2 µg/mL Hoechst for nuclei staining. The cells were washed with PBS, wet-mounted on glass slides, and observed using a confocal laser-scanning microscope (Olympus, Tokyo, Japan). The negative control (NC) was analyzed by omitting the primary antibody.

With `CC(C)=CCCC(C)=CCC(O)C(C)=CCCC1(C)C(CCCO)C(=C(C)C=O)CCC1(C)O` (stereo not drawn) [Compound 2, iridobelamal A] the Ki [1] was 24.9 µM, the “Type of Inhibition” value [1] was “noncompetitive inhibition” and the IC50 [1] was 27 ± 0.6 µM. For the same compound, the “LPS-induced iNOS mRNA upregulation” value [2] was “significantly reduced”, the “reduction of cell viability” value (RAW264.7 cells) was 23.4 ± 5.1% and the “NF-κB translocation to the nucleus (immunocytochemical staining)” value [3] was “suppressed”.

In the case of `CC(C)=CCC/C(C)=C/C[C@@H](O)/C(C)=C/CC[C@@]1(C)[C@H](CCCO)/C(=C(/C)C=O)CC[C@]1(C)O` [Compound 1, isoiridogermanal], the Ki [1] is reported as 12.7 µM, the “Type of Inhibition” value [1] is reported as “noncompetitive inhibition” and the IC50 [1] is reported as 14.4 ± 0.3 µM. The “LPS-induced iNOS mRNA upregulation” value [2] was “significantly reduced”, the “reduction of cell viability” value (RAW264.7 cells) was 28.8 ± 4.4% and the “NF-κB translocation to the nucleus (immunocytochemical staining)” value [3] was “suppressed”.
